One may read the IC50 as the concentration at which inhibition is half-maximal.

What all share (type): cell-based
The test system of assay [1] is HCT 116 (human colorectal cancer cell line). The assay is described as follows: MTT cytotoxicity assay, HCT 116 cells. To be noted: for IC50: Homo sapiens, HCT-116, 24 h, read-out: IC50 HCT 116; for SI (HCT 116): selectivity index: ratio of IC50 NHDF-Neo to IC50 HCT 116. As for the experimental part:
(§1) Cytotoxicity screening of the obtained glycoconjugates, their potential metabolites, and substrates used for their synthesis was conducted using the MTT assay.
(§2) All cells were kept in a humidified incubator at 37 °C in a 5% CO2 atmosphere.
(§3) Cell viability was assessed by the MTT (3-[4,5–dimethylthiazol-2-yl]-2,5-diphenyltetrazolium bromide) test (ACROS Organics). Stock solutions of tested compounds were prepared in DMSO and stored accordingly.
(§4) Cells treated with glycoconjugates or potential metabolites were incubated for another 24–72 h (depending on the cell line). Subsequently, 50 µL MTT solution (0.5 mg/mL) in RPMI medium without Phenol Red was added to each well. After 3 h of incubation, the MTT solution was removed, and the precipitated formazan was dissolved in 100 µL of DMSO. Finally, the absorbance of the solubilized formazan crystals was measured at the 570 nm wavelength. Each experiment was carried out in three independent iterations with four technical repetitions. […] Cell viability was expressed as:Cell viability (%) = (ODsample − ODblank)/(ODcontrol − ODblank) × 100%.
A general note: Formazan colour is commonly taken as a measure of viable cells.

In assay [2] the test system is MCF-7 (human breast adenocarcinoma cell line). The assay is described as follows: MTT cytotoxicity assay, MCF-7 cells. The settings on record: for IC50: Homo sapiens, read-out: IC50 MCF-7; for SI (MCF-7): selectivity index: ratio of IC50 NHDF-Neo to IC50 MCF-7. Here is the method:
as §1, §2, §3, §4

Assay [3] concerns NHDF-Neo (normal human dermal fibroblast-neonatal cells). The assay is described as follows: MTT cytotoxicity assay, NHDF-Neo healthy cells. To be noted: read-out: IC50 NHDF-Neo. As for the experimental part: as §1, §2, §3, §4
Setting [4] is: MTT assay, incubation time 24 h.
Where [5] appears, read: MCF7, MTT assay, incubation time 72 h.

Each structure is given as a SMILES string. Where two headings read alike, the source gives them in different places.

For the compound `Nc1cccc2cccnc12` [Compound 1, 8-Aminoquinoline, reference compound], the IC50 in assay [1] was > 800 µM; in assay [2] (MCF7, 72 h) it was > 400 µM; in assay [3] (24 h) it was > 800 µM.
In the case of `Oc1cccc2cccnc12` [Compound 2, 8-hydroxyquinoline, reference compound], the IC50 in assay [1] stood at 9.33 ± 0.22 µM; in assay [2] (MCF7, 72 h), 3.01 ± 0.05 µM; in assay [3] (24 h) it was 9.34 ± 0.25 µM. In addition, in assay [1], the “SI (HCT 116)” value came out at 1. The “SI (MCF-7)” value in assay [2] amounted to 3.1.
As for `C#CCNc1cccc2cccnc12` [Compound 3, N-(prop-2-yn-1-yl)quinolin-8-amine], the figures for the IC50 in assay [1] (setting [4]), in assay [2] (setting [5]) and in assay [3] (setting [4]) were 550 ± 16.4 µM, 295 ± 8.49 µM and > 800 µM, respectively.
As to `[N-]=[N+]=NCCCNc1cccc2cccnc12` [Compound 5, N-(3-azidopropyl)quinolin-8-amine], the values for the IC50 in assay [1] (setting [4]), in assay [2] (setting [5]) and in assay [3] (setting [4]) were 115 ± 13.4 µM, 47.1 ± 8.49 µM and 415 ± 10.6 µM, respectively.
Regarding `[N-]=[N+]=NCCCOc1cccc2cccnc12` [Compound 6, 8-(3-azidopropoxy)quinoline], the IC50 in assay [3] (24 h) amounted to 782 ± 8.7 µM.
For the compound `CC(=O)OC[C@H]1O[C@@H](N=[N+]=[N-])[C@H](OC(C)=O)[C@@H](OC(C)=O)[C@@H]1OC(C)=O` [Compound 7, 2,3,4,6-tetra-O-acetyl-β-D-glucopyranosyl azide], the IC50 in assay [1] (setting [4]), in assay [2] (setting [5]) and in assay [3] (setting [4]) was > 800 µM throughout.
Regarding `CC(=O)OC[C@H]1O[C@@H](N=[N+]=[N-])[C@H](OC(C)=O)[C@@H](OC(C)=O)[C@H]1OC(C)=O` [Compound 8, 2,3,4,6-tetra-O-acetyl-β-D-galactopyranosyl azide], the IC50 in assay [1] (setting [4]), in assay [2] (setting [5]) and in assay [3] (setting [4]) was > 800 µM in each case.
Take `CC(=O)OC[C@H]1O[C@@H](OCCN=[N+]=[N-])[C@H](OC(C)=O)[C@@H](OC(C)=O)[C@@H]1OC(C)=O` [Compound 9, 2-azidoethyl 2,3,4,6-tetra-O-acetyl-β-D-glucopyranoside]: the IC50 in assay [1] (setting [4]), in assay [2] (setting [5]) and in assay [3] (setting [4]) was > 800 µM in each case.
With `CC(=O)OC[C@H]1O[C@@H](OCCN=[N+]=[N-])[C@H](OC(C)=O)[C@@H](OC(C)=O)[C@H]1OC(C)=O` [Compound 10, 2-azidoethyl 2,3,4,6-tetra-O-acetyl-β-D-galactopyranoside], the IC50 in assay [1] (setting [4]), in assay [2] (setting [5]) and in assay [3] (setting [4]) was > 800 µM in each case.
As for `C#CCO[C@@H]1O[C@H](COC(C)=O)[C@@H](OC(C)=O)[C@H](OC(C)=O)[C@H]1OC(C)=O` [Compound 11, propargyl 2,3,4,6-tetra-O-acetyl-β-D-glucopyranoside], the IC50 in assay [1] (setting [4]), in assay [2] (setting [5]) and in assay [3] (setting [4]) was > 800 µM in each case.
For `C#CCO[C@@H]1O[C@H](COC(C)=O)[C@H](OC(C)=O)[C@H](OC(C)=O)[C@H]1OC(C)=O` [Compound 12, propargyl 2,3,4,6-tetra-O-acetyl-β-D-galactopyranoside], the IC50 in assay [1] (setting [4]), in assay [2] (setting [5]) and in assay [3] (setting [4]) was > 800 µM each time.
For the compound `CC(=O)OC[C@H]1O[C@@H](n2cc(COc3cccc4cccnc34)nn2)[C@H](OC(C)=O)[C@@H](OC(C)=O)[C@@H]1OC(C)=O` [Compound 13a, reference compound], the figures for the concentration for half-maximal inhibition (IC50) in assay [1] (setting [4]), in assay [2] (setting [5]) and in assay [3] (setting [4]) were 69 ± 2.5 µM, 57.7 ± 3.3 µM and 57.4 ± 3.2 µM, respectively. In addition, the “SI (HCT 116)” value in assay [1] amounted to 0.8. In addition, in assay [2], the “SI (MCF-7)” value is reported as 1.0.
Take `CC(=O)OC[C@H]1O[C@@H](n2cc(COc3cccc4cccnc34)nn2)[C@H](OC(C)=O)[C@@H](OC(C)=O)[C@H]1OC(C)=O` [Compound 14a, reference compound]: the results for the IC50 in assay [1] (setting [4]), in assay [2] (setting [5]) and in assay [3] (setting [4]) were 22.7 ± 1.6 µM, 4.1 ± 0.03 µM and 31.9 ± 1.6 µM, respectively. For the same compound, in assay [1], the “SI (HCT 116)” value is recorded as 1.4. Besides, the “SI (MCF-7)” value in assay [2] came out at 7.8.
As to `OCCn1cc(CNc2cccc3cccnc23)nn1` [Compound 19], the “SI (HCT 116)” value in assay [1] was >1.2. Besides, the IC50 is 116 ± 2.7 µM in assay [2] (setting [5]) and > 800 µM in assay [3] (setting [4]). Further, the “SI (MCF-7)” value in assay [2] is >6.9.

These data come from paper PMC11767929 (Molecules, 2025).
